In ChEMBL document CHEMBL1201862, “PubChem BioAssay data set” (2004):
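Interpolation was linear, between the two tested concentrations surrounding the appropriate level; five concentrations were tested over 48 hours in 96-well plates. GI50 is the concentration that inhibits growth by half.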 Active and inactive are the calls of the source. Rule as the data show it: active = GI50 up to about 1.1 µM and inactive = higher.

Key:
Experiment in all cases: growth of human tumour cells (NCI), 48 h
IGROV-1 = tested on: IGROV-1
A549 = tested on: A549
UACC-257 = tested on: UACC-257
RXF 631 = tested on: RXF 631
SF-295 = tested on: SF-295
RPMI-8226 = tested on: RPMI-8226
DMS-273 = tested on: DMS-273
SK-MEL-28 = tested on: SK-MEL-28
CAKI-1 = tested on: CAKI-1
KM-20L2 = tested on: KM-20L2
Malme-3M = tested on: Malme-3M
HOP-92 = tested on: HOP-92
K562 = tested on: K562
SNB-19 = tested on: SNB-19
OVCAR-3 = tested on: OVCAR-3
M14 = tested on: M14
RXF 393 = tested on: RXF 393
SK-OV-3 = tested on: SK-OV-3
EKVX = tested on: EKVX
SW-620 = tested on: SW-620
OVCAR-4 = tested on: OVCAR-4
CCRF-CEM = tested on: CCRF-CEM
MOLT-4 = tested on: MOLT-4
SR = tested on: SR
SNB-78 = tested on: SNB-78
HOP-62 = tested on: HOP-62
HCC 2998 = tested on: HCC 2998
U-251 = tested on: U-251
A498 = tested on: A498
UO-31 = tested on: UO-31
SF-539 = tested on: SF-539
SK-MEL-5 = tested on: SK-MEL-5
SN12C = tested on: SN12C
XF498 = tested on: XF498
OVCAR-8 = tested on: OVCAR-8
NCI-H23 = tested on: NCI-H23
KM12 = tested on: KM12
HCT-116 = tested on: HCT-116
HT-29 = tested on: HT-29
COLO 205 = tested on: COLO 205
UACC-62 = tested on: UACC-62
NCI-H522 = tested on: NCI-H522
HOP-18 = tested on: HOP-18
NCI-H460 = tested on: NCI-H460
NCI-H226 = tested on: NCI-H226
SK-MEL-2 = tested on: SK-MEL-2
M19-MEL = tested on: M19-MEL
SF-268 = tested on: SF-268
ACHN = tested on: ACHN
SNB-75 = tested on: SNB-75
DMS-114 = tested on: DMS-114
HL-60 = tested on: HL-60
OVCAR-5 = tested on: OVCAR-5
LXFL 529 = tested on: LXFL 529
DLD-1 = tested on: DLD-1
HCT-15 = tested on: HCT-15
LOX IMVI = tested on: LOX IMVI
786-0 = tested on: 786-0
TK-10 = tested on: TK-10

COc1cc2c(c(OC)c1OC)-c1ccc(SC)c(=O)cc1C(CO)C2 (centres undefined)
GI50 (IGROV-1): 169 nM (active) | GI50 (A549): 220 nM (active) | GI50 (UACC-257): 57.8 nM (active) | GI50 (RXF 631): < 10 nM (active) | GI50 (SF-295): 175 nM (active) | GI50 (RPMI-8226): < 10 nM (active) | GI50 (DMS-273): 61.4 nM (active) | GI50 (SK-MEL-28): 73.5 nM (active) | GI50 (CAKI-1): 634 nM (active) | GI50 (KM-20L2): 157 nM (active) | GI50 (Malme-3M): 81.1 nM (active) | GI50 (HOP-92): 451 nM (active) | GI50 (K562): 57.5 nM (active) | GI50 (SNB-19): 802 nM (active) | GI50 (OVCAR-3): 164 nM (active) | GI50 (M14): 103 nM (active) | GI50 (RXF 393): 104 nM (active) | GI50 (SK-OV-3): 109 nM (active) | GI50 (EKVX): 603 nM (active) | GI50 (SW-620): 167 nM (active) | GI50 (OVCAR-4): 769 nM (active) | GI50 (CCRF-CEM): 89.1 nM (active) | GI50 (MOLT-4): 596 nM (active) | GI50 (SR): 20.3 nM (active) | GI50 (SNB-78): 96.6 nM (active) | GI50 (HOP-62): 233 nM (active) | GI50 (HCC 2998): 185 nM (active) | GI50 (U-251): 246 nM (active) | GI50 (A498): 107 nM (active) | GI50 (UO-31): 455 nM (active) | GI50 (SF-539): 143 nM (active) | GI50 (SK-MEL-5): 172 nM (active) | GI50 (SN12C): 335 nM (active) | GI50 (XF498): 149 nM (active) | GI50 (OVCAR-8): 188 nM (active) | GI50 (NCI-H23): 307 nM (active) | GI50 (KM12): 81.3 nM (active) | GI50 (HCT-116): 120 nM (active) | GI50 (HT-29): 134 nM (active) | GI50 (COLO 205): 166 nM (active) | GI50 (UACC-62): 41.4 nM (active) | GI50 (NCI-H522): 52.7 nM (active) | GI50 (HOP-18): 24800 nM (inactive) | GI50 (NCI-H460): 184 nM (active) | GI50 (NCI-H226): 279 nM (active) | GI50 (SK-MEL-2): 209 nM (active) | GI50 (M19-MEL): 150 nM (active) | GI50 (SF-268): 146 nM (active) | GI50 (ACHN): 513 nM (active) | GI50 (SNB-75): 32.6 nM (active) | GI50 (DMS-114): 79.1 nM (active) | GI50 (HL-60): 68.2 nM (active) | GI50 (OVCAR-5): 431 nM (active) | GI50 (LXFL 529): 136 nM (active) | GI50 (DLD-1): 169 nM (active) | GI50 (HCT-15): 227 nM | GI50 (LOX IMVI): 220 nM (active) | GI50 (786-0): 355 nM (active)

Cn1ncc(=S)[nH]c1=S
GI50 (IGROV-1): > 100000 nM (inactive) | GI50 (A549): > 100000 nM (inactive) | GI50 (RXF 631): > 100000 nM (inactive) | GI50 (SF-295): > 100000 nM (inactive) | GI50 (RPMI-8226): > 100000 nM (inactive) | GI50 (DMS-273): > 100000 nM (inactive) | GI50 (SK-MEL-28): > 100000 nM (inactive) | GI50 (KM-20L2): > 100000 nM (inactive) | GI50 (Malme-3M): > 100000 nM (inactive) | GI50 (HOP-92): > 100000 nM (inactive) | GI50 (K562): > 100000 nM (inactive) | GI50 (SNB-19): > 100000 nM (inactive) | GI50 (OVCAR-3): > 100000 nM (inactive) | GI50 (M14): > 100000 nM (inactive) | GI50 (RXF 393): > 100000 nM (inactive) | GI50 (SK-OV-3): > 100000 nM (inactive) | GI50 (EKVX): > 100000 nM (inactive) | GI50 (SW-620): > 100000 nM (inactive) | GI50 (OVCAR-4): > 100000 nM (inactive) | GI50 (CCRF-CEM): > 100000 nM (inactive) | GI50 (MOLT-4): > 100000 nM (inactive) | GI50 (SNB-78): > 100000 nM (inactive) | GI50 (HOP-62): > 100000 nM (inactive) | GI50 (U-251): > 100000 nM (inactive) | GI50 (A498): > 100000 nM (inactive) | GI50 (UO-31): > 100000 nM (inactive) | GI50 (SF-539): > 100000 nM (inactive) | GI50 (SN12C): > 100000 nM (inactive) | GI50 (XF498): > 100000 nM (inactive) | GI50 (OVCAR-8): > 100000 nM (inactive) | GI50 (NCI-H23): > 100000 nM (inactive) | GI50 (HCT-116): > 100000 nM (inactive) | GI50 (COLO 205): > 100000 nM (inactive) | GI50 (UACC-62): > 100000 nM (inactive) | GI50 (NCI-H522): > 100000 nM (inactive) | GI50 (HOP-18): 47600 nM (inactive) | GI50 (NCI-H460): > 100000 nM (inactive) | GI50 (TK-10): > 100000 nM (inactive) | GI50 (NCI-H226): > 100000 nM (inactive) | GI50 (SK-MEL-2): > 100000 nM (inactive) | GI50 (M19-MEL): > 100000 nM (inactive) | GI50 (SF-268): > 100000 nM (inactive) | GI50 (ACHN): > 100000 nM (inactive) | GI50 (SNB-75): 97700 nM (inactive) | GI50 (DMS-114): > 100000 nM (inactive) | GI50 (OVCAR-5): > 100000 nM (inactive) | GI50 (LXFL 529): > 100000 nM (inactive) | GI50 (DLD-1): > 100000 nM (inactive) | GI50 (HCT-15): > 100000 nM | GI50 (LOX IMVI): > 100000 nM (inactive) | GI50 (786-0): > 100000 nM (inactive)
